Several values for one entry are separate records, joined by “and”; a condition that tells them apart may be missing. Identical values can stand only once.
Tests used:
[1] = Reducing activity of the stable radical DPPH; type: biochemical
Method: The substituted acids were monitored for the antioxidant activity by the use of the stable 2,2-diphenyl-1-picrylhydrazyl radical (DPPH) at concentration 50 µM and 100 µM after 20 and 60 min (Table 1). In this assay the DPPH radical is reduced by single electron transfer from the antioxidant. Strong antioxidants are the phenoxide anions from phenolic compounds like catechol and derivatives, such as nordihydroguaretic acid (NDGA), the reference compound. The compounds presented medium reducing abilities from 29–61%, due to steric reasons; small differences were found among the compounds with time and concentration. 4-Br-substituted-3 phenyl acetic acid derivatives (Series I) are equipotent to 4-OH-substituted-3 phenyl acetic acid derivatives (Series II). No differences were observed between 4i and 5i and 4ii and 5ii.
To a solution of DPPH in absolute ethanol an equal volume of the compounds dissolved in DMSO was added. The final concentrations of the measured solutions of the novel acids were 50 and 100 µM starting from a stock solution (10 mM) in DMSO. The absorbance was recorded at 517 nm, after 20 and 60 min at room temperature (Table 1).

[2] = target: T1, soybean lipoxygenase (Glycine max, UniProt P08170); experiment: Soybean lipoxygenase inhibition in vitro; type: biochemical; details: for IC50: sodium linoleate 0.1 mM, 234 nm, read-out: LOX IC50
T1 construct: purchased Sigma Chemical, Co. (St. Louis)
T1 sequence (P08170 1-839): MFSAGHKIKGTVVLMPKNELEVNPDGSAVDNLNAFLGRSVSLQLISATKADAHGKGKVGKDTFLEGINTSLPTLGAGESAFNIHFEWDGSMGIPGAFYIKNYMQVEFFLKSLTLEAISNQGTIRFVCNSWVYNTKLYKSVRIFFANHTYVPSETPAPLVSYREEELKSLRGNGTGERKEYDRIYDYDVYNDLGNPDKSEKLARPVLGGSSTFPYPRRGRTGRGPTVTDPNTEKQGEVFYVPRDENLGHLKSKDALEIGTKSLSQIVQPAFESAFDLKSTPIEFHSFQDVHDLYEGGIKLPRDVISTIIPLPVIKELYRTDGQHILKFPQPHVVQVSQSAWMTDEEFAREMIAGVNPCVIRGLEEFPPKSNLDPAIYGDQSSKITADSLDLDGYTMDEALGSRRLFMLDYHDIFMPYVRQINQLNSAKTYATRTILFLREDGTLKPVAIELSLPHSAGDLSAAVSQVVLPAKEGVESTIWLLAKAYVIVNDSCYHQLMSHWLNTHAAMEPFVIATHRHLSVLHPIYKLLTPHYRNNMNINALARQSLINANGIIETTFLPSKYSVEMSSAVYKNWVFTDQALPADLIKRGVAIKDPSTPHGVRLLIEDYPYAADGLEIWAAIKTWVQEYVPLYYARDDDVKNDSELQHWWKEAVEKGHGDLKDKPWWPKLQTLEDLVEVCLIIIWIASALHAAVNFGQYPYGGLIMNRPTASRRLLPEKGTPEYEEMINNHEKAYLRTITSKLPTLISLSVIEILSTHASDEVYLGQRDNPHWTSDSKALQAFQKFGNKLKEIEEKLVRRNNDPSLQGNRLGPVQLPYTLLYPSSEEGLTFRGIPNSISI
Method: Many research groups have used readily obtainable soybean lipoxygenase, which is a homologue of mammalian lipoxygenase and well studied. Due to its availability and its well-characterised crystal structure, soybean LOX was selected to be used in this study.
In vitro study was evaluated as reported previously by our group. The tested compounds were incubated at room temperature with sodium linoleate (0.1 mM) and 0.2 mL of enzyme solution (1/9 × 104 w/v in saline). The method was based to the conversion of sodium linoleate to 13-hydroperoxylinoleic acid at 234 nm. […] In order to determine the IC50 values different concentrations were used.

[3] = Competition with DMSO for hydroxyl radicals (Fe3+/ascorbic acid system); type: biochemical; details: hydroxyl radical scavenging
Method: Competition of the novel substituted acids with DMSO for hydroxyl radicals was measured. Hydroxyl radicals were generated using the Fe^3+/ascorbic acid system and expressed as a percentage inhibition of formaldehyde production in the presence of each compound at 100 μM (Table 2). All the synthesized derivatives strongly scavenge hydroxyl radicals at 100 μM in comparison to the reference compound Trolox.
The hydroxyl radicals generated by the Fe^3+/ascorbic acid system, were detected by the determination of formaldehyde produced from the oxidation of DMSO (Table 2). Trolox was used as reference compound [17, 18, 28].

[4] = Experimental lipophilicity as RM values by reversed phase TLC (RPTLC); type: physicochemical; details: methanol/water 77/23 with 0.1% acetic acid, 24 °C, average of at least 5 measurements
Excerpt: Lipophilicity is a physicochemical property correlated with the biological activity. Lipophilicity influences ligand-target binding interactions, solubility, absorption, distribution, bioavailability, metabolism and elimination (ADME) and toxicological outcomes. The lipophilicity of the novel cinnamic acids was experimentally measured as RM values using a reverse phase thin layer chromatography (RPTLC) method. This is acknowledged as a reliable, fast and convenient approach for expressing lipophilicity (Table 1). RM relates to the thermodynamic Rf value in a logarithmic form. Bate-Smith and Westall firstly determined lipophilicity as RM values in 1950 [31]. The Br-substituted derivatives 1i–7i are more lipophilic than the OH-substituted ones 1ii–7ii which can be easily explained by their structural characteristics.
Reversed phase TLC (RPTLC) was performed on silica gel plates impregnated with 55% (v/v) liquid paraffin in light petroleum ether. The mobile phase was a methanol/water mixture (77/23, v/v) containing 0.1% of acetic acid. The plates were developed in closed chromatography tanks saturated with the mobile phase at 24 °C. Spots were detected under UV light. RM values were determined from the corresponding Rf values (from five individual measurements) using the equation RM = log[(1/Rf) − 1] [17, 18, 28].

[5] = Non enzymatic assay of superoxide radical scavenging activity (PMS/NADH/NBT); type: biochemical
Method: Superoxide radical is a main cause of oxidative stress, expressing its biological toxicity by the inactivation of iron-sulfur cluster containing enzymes. The superoxide anion radical (O2^−^•) is less toxic than the hydroxyl radical, but still being one of the most known toxic reactive oxygen species (ROS). In this assay the superoxide anion radicals were generated by a non-enzymatically assay and the compounds are tested at 100 μM final concentration (Table 2). Caffeic acid (CA) has been used as a reference compound. Compound 4ii presented the highest activity, followed by compound 3ii. We succeeded to derive a quantitative-structure activity relationship model for this activity in which the topological polar surface (TPAS) of the compounds seem to govern the superoxide anion scavenging activity:% Superoxide Anion Scavenging Activity (100 µM) = 0.019 (±0.007) TPSA + 0.813 (±0.358) n = 6, r = 0.962, r^2 = 0.926, q^2 = 0.694, s = 0.122, Q = 7.885, F1,6 = 3.701, α = 0.1 clog P vs. TPSA 0.
The superoxide radicals are generated by mixing N-methylphenazonium methyl sulfate (PMS), NADH and air–oxygen and determined by the nitroblue tetrazolium method and measured at 560 nm (Table 2). Caffeic acid was used as reference compound [17, 18, 28].

[6] = Inhibition of linoleic acid peroxidation (AAPH); type: biochemical; details: anti-lipid peroxidation
Excerpt: We also used water-soluble 2,2′-[…](2-amidinopropane) hydrochloride (AAPH) for the generation of free radicals. AAPH has been extensively used as a clean and controllable source of thermally produced alkylperoxyl free radicals. The peroxyl radicals produced by the action of AAPH show total similarity to cellular activities such as lipid peroxidation. […] It seems that the presence of 3,5-di-tert-butyl-group greatly enhances protection against lipid peroxidation (6i/ii and 7i/ii followed by 3ii and 5ii). The lipid peroxidation inhibitory activity seems to be concentration dependent.
2,2’-Azobis(2-amidinopropane) dihydrochloride (AAPH) was used as a free radical initiator to start the oxidation reaction. The method was based on the production of conjugated diene hydroperoxide by oxidation of linoleic acid at 234 nm expressed as an increased absorption. Trolox was used as reference compound (93%) (Table 2).

[7] = ABTS+• decolorization assay; type: biochemical; details: 1 min, 734 nm
Method: No role for lipophilicity was found. Oxidation of ABTS with potassium persulfate generates directly the ABTS radical cation (ABTS^+•) with no involvement of an intermediary radical, which is then reduced upon adding electron-donating antioxidants.
In order to produce the ABTS radical cation (ABTS^+•), ABTS stock solution in water (7 mM) was mixed with potassium persulfate (2.45 mM) and left in the dark at room temperature for 12–16 h before use. Our published experimental technique was used (Table 2). The results are recorded after 1 min of the mixing solutions at 734 nm. The results were compared to the appropriate standard inhibitor Trolox.

Structure (SMILES) | RA% 50 µM 20 min [1] | RA% 50 µM 60 min [1] | RA% 100 µM 20 min [1] | RA% 100 µM 60 min [1] | LOX % Inhibition 100 µM ([2]; 100 µM) | inhibition at 100 µM ([2]; 100 µM, read-out: LOX % Inhibition 100 µM) | melting point | HO•% 100 µM [3] | RM (±SD) [4] | O2−•% 100 µM [5] | AAPH% 50 µM [6] | AAPH% 100 µM [6] | ABTS+•% 100 µM [7] | IC50 [2]
O=C(O)C(=CC(Br)=Cc1ccccc1)c1ccc(Br)cc1 [Compound 4i, 4-Bromo-2-(4-bromophenyl)-5-phenylpenta-2,4-dienoic acid] | 30% | 30% | 38% | 36% | 28% | 27.9% | 211 to 212 °C | 83% | 0.423 (0.017) | 46% | 52% | 85% | 24% | –
CC(=Cc1ccccc1)C=C(C(=O)O)c1ccc(O)cc1 [Compound 5ii, 2-(4-Hydroxyphenyl)-4-methyl-5-phenylpenta-2,4-dienoic acid] | 32% | 39% | 30% | 41% | – | – | 90 to 91 °C | 89% | −0.565 (0.003) | 8% | 53% | 93% | 35% | 81.5 µM
O=C(O)C(=Cc1cccc(Oc2ccccc2)c1)c1ccc(Br)cc1 [Compound 1i, 2-(4-Bromophenyl)-3-(3-phenoxyphenyl)acrylic acid] | 38% | 37% | 44% | 46% | – | – | 152 to 153 °C | 94% | −0.103 (0.009) | 54% | 34% | 90% | 29% | 100 µM
O=C(O)C(=Cc1cccc(Oc2ccccc2)c1)c1ccc(O)cc1 [Compound 1ii, 2-(4-Hydroxyphenyl)-3-(3-phenoxyphenyl)acrylic acid] | 40% | 39% | 45% | 47% | – | – | 105 to 107 °C | 100% | −0.537 (0.002) | 8% | 22% | 94% | 83.4% and 83% | 91.5 µM
CC(C)(C)c1cc(C=C(C(=O)O)c2ccc(O)cc2)cc(C(C)(C)C)c1O [Compound 7ii, 3-(3,5-di-tert-Butyl-4-hydroxyphenyl)-2-(4-hydroxyphenyl)acrylic acid] | 33% | 35% | 33% | 34% | – | – | 139 to 140 °C | 72% | 0.654 (0.016) | 69% | 69% | 100% | 34% | 57.5 µM
CC(C)(C)c1cc(C=C(C(=O)O)c2ccc(Br)cc2)cc(C(C)(C)C)c1O [Compound 7i, 2-(4-Bromophenyl)-3-(3,5-di-tert-butyl-4-hydroxyphenyl)acrylic acid] | 34% | 35% | 30% | 31% | – | – | 137 to 138 °C | 87% | 1.151 (0.021) | 54% | 61% | 100% | 28% | 72.5 µM
O=C(O)C(=CC(Br)=Cc1ccccc1)c1ccc(O)cc1 [Compound 4ii, 4-Bromo-2-(4-hydroxyphenyl)-5-phenylpenta-2,4-dienoic acid] | 34% | 46% | 35% | 37% | – | – | 155 to 157 °C | 96% | 0.011 (0.001) | 100% | 59% | 97% | 24% | 69 µM

Source: publication PMC6337588, “Multi-Target Cinnamic Acids for Oxidative Stress and Inflammation: Design, Synthesis, Biological Evaluation and Modeling Studies” (Molecules, 2018)
